# Assay results from US9409952B2, “Peptide-compound cyclization method” (Chugai Seiyaku Kabushiki Kaisha, priority 2011, dated 2016).
# Where two headings read alike, the source gives them in different places. Starred links: 1 amine or outer side, 2 acyl side, 3 side chain; linkers in the order of their positions; H or OH if unused. Positions of bridges follow the written chain, without caps; N, C: chain ends. Non-standard residues stand in square brackets, D forms with d. Residues, ends and D or L forms follow the SMILES beside them. *: point of attachment. Phe(4-(CH2)5CO) = O=C([C@H](Cc1ccc(CCCCCC(=O)[*:3])cc1)N[*:1])[*:2]; NEtPhe = CCN[C@@H](Cc1ccccc1)C(=O)O; NMeF = CN[C@@H](Cc1ccccc1)C(=O)O; NMeI = CC[C@H](C)[C@H](NC)C(=O)O; NMeL = CN[C@@H](CC(C)C)C(=O)O; NMeV = CN[C@H](C(=O)O)C(C)C; Pip = O=C(O)[C@@H]1CCCCN1; NMeA = CN[C@@H](C)C(=O)O; Piperidide = C1CCN(*)CC1; dNMeA = CN[C@H](C)C(=O)O; β3hA = C[C@H](N)CC(=O)O; NPrGly = CCCNCC(=O)O; Sar = CNCC(=O)O; tBu = CC(C)(C)*
# Assay: Metabolic stability in human hepatic microsome
# Format: in vitro ADME
# Conditions: for microsomal CLint at 1 uM: microsomes
# [1] = pH 7.4, human hepatic microsome, NADPH(+), read-out: CL NADPH(+)
SMILES,"microsomal CLint at 1 uM (human, pH 7.4, CL NADPH(+))",microsomal CLint at 1 uM [1],also measured
"CC(C)C[C@H]1C(=O)N[C@@H](COC(C)(C)C)C(=O)N[C@H](C(=O)N2CCCCC2)CC(=O)N[C@@H](C)C(=O)N(C)[C@@H](C)C(=O)N(C)[C@@H](Cc2ccccc2)C(=O)N(C)[C@@H](CC(C)C)C(=O)N[C@@H]([C@@H](C)O)C(=O)N(C)CC(=O)N1C [Compound P-119, Ala-MeAla-MePhe-MeLeu-Thr-MeGly-MeLeu-Ser(tBu)-Asp-piperidine] (A[NMeA][NMeF][NMeL]T[Sar][NMeL]S(tBu)D-Piperidide; lactam N-9)",,,"Hepatic microsome CLhint (Human) In the absence of NADPH: 5 ul/min/mg Protein; microsomal CLint at 1 uM (human, pH 7.4, Hepatic microsome CLhint (Human) In the presence of NADPH): 56 µL/min/mg"
CC[C@H](C)[C@H](NC(=O)[C@H](C)NC(=O)CNC(=O)[C@@H]1CC(=O)N[C@@H](C)C(=O)N[C@@H](CC(C)C)C(=O)N[C@@H]([C@@H](C)O)C(=O)N(C)[C@@H](CC(C)C)C(=O)N[C@@H](Cc2ccccc2)C(=O)N2CCC[C@H]2C(=O)N[C@@H](C(C)C)C(=O)N[C@@H](Cc2ccccc2)C(=O)N(C)[C@@H](CC(C)C)C(=O)N1)C(=O)N1CCCCC1 [DP-42] (ALT[NMeL]FPVF[NMeL]DGAI-Piperidide; lactam N-10),17 µL/min/mg,,
CC[C@H](C)[C@H]1C(=O)N[C@@H]([C@@H](C)O)C(=O)N(C)CC(=O)N(C)[C@@H](CC(C)C)C(=O)N[C@H](C(=O)N2CCCCC2)CC(=O)N(C)[C@H](C)C(=O)N[C@@H](CC(C)C)C(=O)N(C)[C@@H](CC(C)C)C(=O)N(CC)[C@@H](Cc2ccccc2)C(=O)N[C@@H](C)C(=O)N(C)[C@@H](Cc2ccccc2)C(=O)N1C [DP-633] ([dNMeA]L[NMeL][NEtPhe]A[NMeF][NMeI]T[Sar][NMeL]D-Piperidide; lactam N-11),,98 µL/min/mg,
CC[C@H](C)[C@@H]1NC(=O)[C@H](Cc2ccccc2)NC(=O)[C@H](C)NC(=O)C[C@@H](C(=O)N2CCCCC2)NC(=O)[C@H](CC(C)C)NC(=O)[C@H](CC(C)C)NC(=O)[C@H](C(C)C)NC(=O)[C@H](C)N(C)C(=O)[C@H](Cc2ccccc2)NC(=O)CNC(=O)[C@H]([C@@H](C)O)NC(=O)[C@H](CC(C)C)NC(=O)[C@@H]2CCCN2C1=O [DP-19] (AFIPLTGF[NMeA]VLLD-Piperidide; lactam N-13),80 µL/min/mg,,
CCCN1CC(=O)N[C@@H](COC(C)(C)C)C(=O)N(C)CC(=O)N(C)[C@@H](CC(C)C)C(=O)N[C@@H]([C@@H](C)O)C(=O)N(C)[C@@H](Cc2ccccc2)C(=O)N(C)[C@@H](CC(C)C)C(=O)N(C)[C@@H]([C@@H](C)CC)C(=O)N(C)[C@@H](C)C(=O)N[C@H](C(=O)N2CCCCC2)CC1=O [DP-634] ([NPrGly]S(tBu)[Sar][NMeL]T[NMeF][NMeL][NMeI][NMeA]D-Piperidide; lactam N-10),,32 µL/min/mg,
CCN1C(=O)[C@H](Cc2ccccc2)N(C)C(=O)CN(C)C(=O)[C@H]([C@@H](C)O)NC(=O)[C@H](C)N(C)C(=O)C[C@@H](C(=O)N2CCCCC2)NC(=O)[C@H](C(C)C)N(C)C(=O)[C@H](C)NC(=O)[C@H](CC(C)C)N(C)C(=O)[C@@H]2CCCN2C(=O)[C@H](CC(C)C)N(C)C(=O)[C@@H]1Cc1ccccc1 [DP-632] ([NMeA]T[Sar][NMeF][NEtPhe][NMeL]P[NMeL]A[NMeV]D-Piperidide; lactam N-11),41 µL/min/mg,,
CC[C@H](C)[C@@H]1NC(=O)[C@H](CC(C)C)N(C)C(=O)[C@H](CC(C)C)N(C)C(=O)[C@H](C)NC(=O)[C@H](CC(C)C)N(C)C(=O)[C@H](Cc2ccccc2)NC(=O)[C@H]([C@@H](C)O)NC(=O)[C@H](CC(C)C)N(C)C(=O)[C@H](CC(C)C)N(C)C(=O)[C@H](C)N(C)C(=O)C[C@H](C)NC1=O [DP-772] (cyclo(A[NMeL][NMeL]I[β3hA][NMeA][NMeL][NMeL]TF[NMeL])),153 µL/min/mg,,
CC[C@H](C)[C@@H]1NC(=O)[C@H](Cc2ccccc2)N(C)C(=O)[C@H](CC(C)C)N(C)C(=O)[C@H](CC(C)C)NC(=O)[C@H](C)NC(=O)[C@H](C(C)C)N(C)C(=O)CNC(=O)CCCCCc2ccc(cc2)C[C@@H](C(=O)N2CCCCC2)NC(=O)[C@H](CC(C)C)N(C)C(=O)[C@H]([C@@H](C)O)NC(=O)[C@@H]2CCCN2C(=O)[C@H](Cc2ccccc2)NC1=O [DP-902] (G[NMeV]AL[NMeL][NMeF]IFPT[NMeL][Phe(4-(CH2)5CO)]-Piperidide; lactam N-12),,121 µL/min/mg,
CC[C@H](C)[C@@H]1NC(=O)[C@H](C)NC(=O)[C@H](CC(C)C)N(C)C(=O)[C@H](CC(C)C)NC(=O)[C@H](Cc2ccccc2)NC(=O)[C@H](C(C)C)NC(=O)[C@@H]2CCCN2C(=O)[C@H](CC(C)C)NC(=O)[C@H](Cc2ccccc2)N(C)C(=O)[C@H]([C@@H](C)O)NC(=O)CNC(=O)[C@H](C)NC(=O)C[C@@H](C(=O)N2CCCCC2)NC1=O [DP-20] (AGT[NMeF]LPVFL[NMeL]AID-Piperidide; lactam N-13),97 µL/min/mg,,
CCN1C(=O)[C@H](C)NC(=O)[C@H](Cc2ccccc2)N(C)C(=O)[C@H](CC(C)C)N(C)C(=O)[C@H](CC(C)C)NC(=O)[C@@H](C)N(C)C(=O)C[C@@H](C(=O)N2CCCCC2)NC(=O)[C@H](CC(C)C)N(C)C(=O)CN(C)C(=O)[C@H]([C@@H](C)O)NC(=O)[C@H](CC(C)C)N(C)C(=O)[C@@H]1Cc1ccccc1 [DP-637] ([dNMeA]L[NMeL][NMeF]A[NEtPhe][NMeL]T[Sar][NMeL]D-Piperidide; lactam N-11),,56 µL/min/mg,
CC(C)C[C@@H]1NC(=O)[C@H](CC(C)C)N(C)C(=O)[C@H](Cc2ccccc2)NC(=O)[C@H](C)N(C)C(=O)C[C@@H](C(=O)N2CCCCC2)NC(=O)[C@H](Cc2ccccc2)NC(=O)[C@@H]2CCCN2C(=O)[C@H]([C@@H](C)O)NC(=O)[C@H](CC(C)C)N(C)C(=O)CNC(=O)[C@@H]2CCCCN2C1=O [DP-555] ([NMeA]F[NMeL]L[Pip]G[NMeL]TPFD-Piperidide; lactam N-11),,95 µL/min/mg,
CC[C@H](C)[C@@H]1NC(=O)[C@H](Cc2ccccc2)N(C)C(=O)[C@H](Cc2ccccc2)NC(=O)[C@H](CC(C)C)N(C)C(=O)[C@H](CC(C)C)NC(=O)[C@H](C)NC(=O)C[C@@H](C(=O)N2CCCCC2)NC(=O)[C@H]([C@@H](C)O)NC(=O)[C@@H]2CCCN2C1=O [DP-33] (AL[NMeL]F[NMeF]IPTD-Piperidide; lactam N-9),202 µL/min/mg,,
CC[C@H](C)[C@H]1C(=O)NCC(=O)N(C)[C@@H](CC(C)C)C(=O)N[C@@H]([C@@H](C)O)C(=O)N2CCC[C@H]2C(=O)N[C@@H](Cc2ccccc2)C(=O)N[C@H](C(=O)N2CCCCC2)CC(=O)N(C)[C@@H](C)C(=O)N[C@@H](Cc2ccccc2)C(=O)N2CCCC[C@H]2C(=O)N[C@@H](CC(C)C)C(=O)N1C [DP-553] ([NMeA]F[Pip]L[NMeI]G[NMeL]TPFD-Piperidide; lactam N-11),,106 µL/min/mg,
CC[C@H](C)[C@@H]1NC(=O)[C@H](Cc2ccccc2)N(C)C(=O)[C@@H](C)NC(=O)C[C@@H](C(=O)N2CCCCC2)NC(=O)[C@H](C(C)C)NC(=O)CN(C)C(=O)[C@H]([C@@H](C)O)NC1=O [DP-674] ([dA][NMeF]IT[Sar]VD-Piperidide; lactam N-7),,10 µL/min/mg,
CC[C@H](C)[C@H]1C(=O)NCC(=O)N(C)[C@@H](CC(C)C)C(=O)N[C@@H]([C@@H](C)O)C(=O)N2CCCC[C@H]2C(=O)N[C@@H](Cc2ccccc2)C(=O)N[C@H](C(=O)N2CCCCC2)CC(=O)N(C)[C@@H](C)C(=O)N[C@@H](Cc2ccccc2)C(=O)N(C)[C@@H](CC(C)C)C(=O)N[C@@H](CC(C)C)C(=O)N1C [DP-559] ([NMeA]F[NMeL]L[NMeI]G[NMeL]T[Pip]FD-Piperidide; lactam N-11),,145 µL/min/mg,
